Reference: PubChem BioAssay AID2060611 (Molecular Pharmacology Branch, DTP, NCI, 2025)
One block for each compound: values may come before it.

System: 628569-122-R-J1-PDC complex spheroid viability
Assay: Anticancer human tumor 628569-122-R-J1-PDC patient-derived head and neck squamous carcinoma cell line growth inhibition [CLK]
Settings: for IC50: curve of first compound; for viability, T/C: stronger effect = lower value
How it was run: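 Multi-cell-type spheroids combined patient-derived tumor cells with HUVEC endothelial cells and human mesenchymal stem cells. Paired agents were dosed in half-log steps down from about clinical Cmax, or from 10 microM where Cmax was unknown.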

[1] = second compound 0.0316 µM, first compound 0.0316 µM
[2] = second compound 0.0316 µM, first compound 0.1 µM
[3] = second compound 0.0316 µM, first compound 0.316 µM
[4] = second compound 0.0316 µM, first compound 1 µM
[5] = second compound 0.0316 µM, first compound 3.16 µM
[6] = second compound 0.0316 µM, first compound 10 µM
[7] = second compound 0.1 µM, first compound 0.0316 µM
[8] = second compound 0.1 µM, first compound 0.1 µM
[9] = second compound 0.1 µM, first compound 0.316 µM
[10] = second compound 0.1 µM, first compound 1 µM
[11] = second compound 0.1 µM, first compound 3.16 µM
[12] = second compound 0.1 µM, first compound 10 µM
[13] = second compound 0.316 µM, first compound 0.0316 µM
[14] = second compound 0.316 µM, first compound 0.1 µM
[15] = second compound 0.316 µM, first compound 0.316 µM
[16] = second compound 0.316 µM, first compound 1 µM
[17] = second compound 0.316 µM, first compound 3.16 µM
[18] = second compound 0.316 µM, first compound 10 µM
[19] = second compound 1 µM, first compound 0.0316 µM
[20] = second compound 1 µM, first compound 0.1 µM
[21] = second compound 1 µM, first compound 0.316 µM
[22] = second compound 1 µM, first compound 1 µM
[23] = second compound 1 µM, first compound 3.16 µM
[24] = second compound 1 µM, first compound 10 µM
[25] = second compound 3.16 µM, first compound 0.0316 µM
[26] = second compound 3.16 µM, first compound 0.1 µM
[27] = second compound 3.16 µM, first compound 0.316 µM
[28] = second compound 3.16 µM, first compound 1 µM
[29] = second compound 3.16 µM, first compound 3.16 µM
[30] = second compound 3.16 µM, first compound 10 µM
[31] = second compound 10 µM, first compound 0.0316 µM
[32] = second compound 10 µM, first compound 0.1 µM
[33] = second compound 10 µM, first compound 0.316 µM
[34] = second compound 10 µM, first compound 1 µM
[35] = second compound 10 µM, first compound 3.16 µM
[36] = second compound 10 µM, first compound 10 µM
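Note: spheroids exposed to agents for seven days before readout.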
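Throughout, for viability, T/C: 100% = DMSO vehicle control viability.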

- IC50 (second compound 0.0316 µM): > 300 nM
- IC50 (second compound 0.1 µM): 26.9 nM
- IC50 (second compound 0.316 µM): 17.9 nM
- IC50 (second compound 1 µM): < 0.949 nM
- IC50 (second compound 3.16 µM): < 0.949 nM
- IC50 (second compound 10 µM): < 0.949 nM
Structure (SMILES): C=CC(=O)Nc1cc(Nc2nccc(-c3cn(C)c4ccccc34)n2)c(OC)cc1N(C)CCN(C)C + CNC(=O)c1ccc(Nc2nc(OC3CCCC3)c3c(-c4ccc5nc(C)oc5c4)c[nH]c3n2)c(OC)c1
- viability, T/C (second compound 0.0316 µM, first compound 0.000949 µM): 81.8%
- viability, T/C (second compound 0.0316 µM, first compound 0.003 µM): 98.1%
- viability, T/C (second compound 0.0316 µM, first compound 0.00949 µM): 86.1%
- viability, T/C (second compound 0.0316 µM, first compound 0.03 µM): 84.2%
- viability, T/C (second compound 0.0316 µM, first compound 0.0949 µM): 68.1%
- viability, T/C (second compound 0.0316 µM, first compound 0.3 µM): 53.7%
- viability, T/C (second compound 0.1 µM, first compound 0.000949 µM): 63%
- viability, T/C (second compound 0.1 µM, first compound 0.003 µM): 56.2%
- viability, T/C (second compound 0.1 µM, first compound 0.00949 µM): 52.4%
- viability, T/C (second compound 0.1 µM, first compound 0.03 µM): 49%
- viability, T/C (second compound 0.1 µM, first compound 0.0949 µM): 49.6%
- viability, T/C (second compound 0.1 µM, first compound 0.3 µM): 37.6%
- viability, T/C (second compound 0.316 µM, first compound 0.000949 µM): 50.7%
- viability, T/C (second compound 0.316 µM, first compound 0.003 µM): 55.7%
- viability, T/C (second compound 0.316 µM, first compound 0.00949 µM): 49%
- viability, T/C (second compound 0.316 µM, first compound 0.03 µM): 49.5%
- viability, T/C (second compound 0.316 µM, first compound 0.0949 µM): 41.5%
- viability, T/C (second compound 0.316 µM, first compound 0.3 µM): 23.9%
- viability, T/C (second compound 1 µM, first compound 0.000949 µM): 49.1%
- viability, T/C (second compound 1 µM, first compound 0.003 µM): 51.4%
- viability, T/C (second compound 1 µM, first compound 0.00949 µM): 38.8%
- viability, T/C (second compound 1 µM, first compound 0.03 µM): 42.1%
- viability, T/C (second compound 1 µM, first compound 0.0949 µM): 36.6%
- viability, T/C (second compound 1 µM, first compound 0.3 µM): 18.9%
- viability, T/C (second compound 3.16 µM, first compound 0.000949 µM): 43.1%
- viability, T/C (second compound 3.16 µM, first compound 0.003 µM): 48.9%
- viability, T/C (second compound 3.16 µM, first compound 0.00949 µM): 39.3%
- viability, T/C (second compound 3.16 µM, first compound 0.03 µM): 44.2%
- viability, T/C (second compound 3.16 µM, first compound 0.0949 µM): 23.7%
- viability, T/C (second compound 3.16 µM, first compound 0.3 µM): 13.7%
- viability, T/C (second compound 10 µM, first compound 0.000949 µM): 46.5%
- viability, T/C (second compound 10 µM, first compound 0.003 µM): 40.6%
- viability, T/C (second compound 10 µM, first compound 0.00949 µM): 46.8%
- viability, T/C (second compound 10 µM, first compound 0.03 µM): 45%
- viability, T/C (second compound 10 µM, first compound 0.0949 µM): 25.8%
- viability, T/C (second compound 10 µM, first compound 0.3 µM): 12%

- IC50 (second compound 0.0316 µM): 269 nM
- IC50 (second compound 0.1 µM): 31.7 nM
- IC50 (second compound 0.316 µM): < 31.6 nM
- IC50 (second compound 1 µM): < 31.6 nM
- IC50 (second compound 3.16 µM): < 31.6 nM
- IC50 (second compound 10 µM): < 31.6 nM
Structure (SMILES): CC(Nc1ccc2c(c1)OCCn1cc(N3C(=O)OCC3C(F)F)nc1-2)C(N)=O (stereo not drawn) + CNC(=O)c1ccc(Nc2nc(OC3CCCC3)c3c(-c4ccc5nc(C)oc5c4)c[nH]c3n2)c(OC)c1
- viability, T/C [1]: 67.3%
- viability, T/C [2]: 61.1%
- viability, T/C [3]: 48.2%
- viability, T/C [4]: 34.2%
- viability, T/C [5]: 41.8%
- viability, T/C [6]: 26.5%
- viability, T/C [7]: 55.7%
- viability, T/C [8]: 38.5%
- viability, T/C [9]: 31.9%
- viability, T/C [10]: 40.5%
- viability, T/C [11]: 38.2%
- viability, T/C [12]: 17.7%
- viability, T/C [13]: 41%
- viability, T/C [14]: 44.8%
- viability, T/C [15]: 36.5%
- viability, T/C [16]: 43.1%
- viability, T/C [17]: 32.3%
- viability, T/C [18]: 16.9%
- viability, T/C [19]: 39.5%
- viability, T/C [20]: 32.6%
- viability, T/C [21]: 29.6%
- viability, T/C [22]: 27.5%
- viability, T/C [23]: 23.4%
- viability, T/C [24]: 13.5%
- viability, T/C [25]: 37.1%
- viability, T/C [26]: 31.7%
- viability, T/C [27]: 26.8%
- viability, T/C [28]: 22.2%
- viability, T/C [29]: 20.8%
- viability, T/C [30]: 16.3%
- viability, T/C [31]: 34.7%
- viability, T/C [32]: 28.2%
- viability, T/C [33]: 26.5%
- viability, T/C [34]: 25.9%
- viability, T/C [35]: 23.2%
- viability, T/C [36]: 13.2%

- IC50 (second compound 0.0316 µM): > 1000 nM
- IC50 (second compound 0.1 µM): > 1000 nM
- IC50 (second compound 0.316 µM): > 1000 nM
- IC50 (second compound 1 µM): < 3.16 nM
- IC50 (second compound 3.16 µM): < 3.16 nM
- IC50 (second compound 10 µM): < 3.16 nM
Structure (SMILES): CCN1CCN(Cc2ccc(Nc3ncc(F)c(-c4cc(F)c5nc(C)n(C(C)C)c5c4)n3)nc2)CC1 + CNC(=O)c1ccc(Nc2nc(OC3CCCC3)c3c(-c4ccc5nc(C)oc5c4)c[nH]c3n2)c(OC)c1
- viability, T/C (second compound 0.0316 µM, first compound 0.00316 µM): 81.5%
- viability, T/C (second compound 0.0316 µM, first compound 0.01 µM): 94.4%
- viability, T/C [1]: 76.3%
- viability, T/C [2]: 67.7%
- viability, T/C [3]: 98.7%
- viability, T/C [4]: 155%
- viability, T/C (second compound 0.1 µM, first compound 0.00316 µM): 58.5%
- viability, T/C (second compound 0.1 µM, first compound 0.01 µM): 64%
- viability, T/C [7]: 56.4%
- viability, T/C [8]: 61.7%
- viability, T/C [9]: 108%
- viability, T/C [10]: 137%
- viability, T/C (second compound 0.316 µM, first compound 0.00316 µM): 57.6%
- viability, T/C (second compound 0.316 µM, first compound 0.01 µM): 55.6%
- viability, T/C [13]: 51.7%
- viability, T/C [14]: 61%
- viability, T/C [15]: 95.3%
- viability, T/C [16]: 135%
- viability, T/C (second compound 1 µM, first compound 0.00316 µM): 45.5%
- viability, T/C (second compound 1 µM, first compound 0.01 µM): 49.2%
- viability, T/C [19]: 50.7%
- viability, T/C [20]: 63%
- viability, T/C [21]: 92.6%
- viability, T/C [22]: 122%
- viability, T/C (second compound 3.16 µM, first compound 0.00316 µM): 48.2%
- viability, T/C (second compound 3.16 µM, first compound 0.01 µM): 55.7%
- viability, T/C [25]: 57.1%
- viability, T/C [26]: 49.6%
- viability, T/C [27]: 82.9%
- viability, T/C [28]: 97.9%
- viability, T/C (second compound 10 µM, first compound 0.00316 µM): 46.1%
- viability, T/C (second compound 10 µM, first compound 0.01 µM): 38.8%
- viability, T/C [31]: 46.1%
- viability, T/C [32]: 49.3%
- viability, T/C [33]: 76.4%
- viability, T/C [34]: 99.2%

- IC50 (second compound 0.0316 µM): 9140 nM
- IC50 (second compound 0.1 µM): > 10000 nM
- IC50 (second compound 0.316 µM): > 10000 nM
- IC50 (second compound 1 µM): 184 nM
- IC50 (second compound 3.16 µM): 3310 nM
- IC50 (second compound 10 µM): 31.6 nM
Structure (SMILES): Nc1ccccc1NC(=O)c1ccc(CNC(=O)OCc2cccnc2)cc1 + CNC(=O)c1ccc(Nc2nc(OC3CCCC3)c3c(-c4ccc5nc(C)oc5c4)c[nH]c3n2)c(OC)c1
- viability, T/C [1]: 97.7%
- viability, T/C [2]: 114%
- viability, T/C [3]: 125%
- viability, T/C [4]: 138%
- viability, T/C [5]: 101%
- viability, T/C [6]: 45.6%
- viability, T/C [7]: 59.1%
- viability, T/C [8]: 55%
- viability, T/C [9]: 61.9%
- viability, T/C [10]: 83.7%
- viability, T/C [11]: 102%
- viability, T/C [12]: 32.3%
- viability, T/C [13]: 50.8%
- viability, T/C [14]: 51%
- viability, T/C [15]: 49%
- viability, T/C [16]: 73.3%
- viability, T/C [17]: 94.1%
- viability, T/C [18]: 22.5%
- viability, T/C [19]: 42.9%
- viability, T/C [20]: 48.7%
- viability, T/C [21]: 47.4%
- viability, T/C [22]: 60.4%
- viability, T/C [23]: 81.8%
- viability, T/C [24]: 12.5%
- viability, T/C [25]: 44.6%
- viability, T/C [26]: 45.5%
- viability, T/C [27]: 45.8%
- viability, T/C [28]: 56.5%
- viability, T/C [29]: 67.3%
- viability, T/C [30]: 7.27%
- viability, T/C [31]: 48.6%
- viability, T/C [32]: 41.5%
- viability, T/C [33]: 44.2%
- viability, T/C [34]: 54.3%
- viability, T/C [35]: 57.6%
- viability, T/C [36]: 4.45%
